Measured values taken from ChEMBL document CHEMBL1938339, “Tripeptidic BACE1 inhibitors devised by in-silico conformational structure-based design” (Bioorg Med Chem Lett, 2012).

Target: Beta-secretase 1 (Homo sapiens) (UniProt P56817)
Experiment: Inhibition of human recombinant BACE1 at 2 uM by FRET assay

Chain of Beta-secretase 1 (Homo sapiens) (P56817 whole entry): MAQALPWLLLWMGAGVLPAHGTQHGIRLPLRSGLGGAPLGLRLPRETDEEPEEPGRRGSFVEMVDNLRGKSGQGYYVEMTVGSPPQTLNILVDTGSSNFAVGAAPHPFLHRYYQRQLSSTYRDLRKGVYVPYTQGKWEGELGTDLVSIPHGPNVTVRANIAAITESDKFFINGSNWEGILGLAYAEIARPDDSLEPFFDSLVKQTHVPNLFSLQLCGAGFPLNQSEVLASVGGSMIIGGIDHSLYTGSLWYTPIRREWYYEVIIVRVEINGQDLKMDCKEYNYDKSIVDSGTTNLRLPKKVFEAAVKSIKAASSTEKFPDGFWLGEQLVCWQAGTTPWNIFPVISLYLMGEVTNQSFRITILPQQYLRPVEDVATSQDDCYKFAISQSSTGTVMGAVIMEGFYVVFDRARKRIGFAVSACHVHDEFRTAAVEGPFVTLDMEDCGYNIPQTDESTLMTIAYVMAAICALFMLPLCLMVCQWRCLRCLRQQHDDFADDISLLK

Row | SMILES | inhibition [%]
1 | CC(C)C[C@H](NC(=O)[C@@H](NC(=O)[C@@H](N)CNC(=O)c1[nH]c(=O)[nH]c(=O)c1F)C(C)C)C(=O)N1CCCCCCC1 | 85
2 | CC(C)[C@H](NC(=O)[C@@H](N)CNC(=O)c1nn[nH]n1)C(=O)N[C@@H](CC1CCCCC1)C(=O)NC(C)(C)Cc1ccccc1 | 76
3 | COc1ccc(CC(C)(C)NC(=O)[C@H](CC(C)C)NC(=O)[C@@H](NC(=O)[C@@H](N)CNC(=O)c2[nH]c(=O)[nH]c(=O)c2F)C(C)C)cc1 | 83
4 | CC(C)C[C@H](NC(=O)[C@@H](NC(=O)[C@@H](N)CNC(=O)c1[nH]c(=O)[nH]c(=O)c1F)C(C)C)C(=O)N1CCCCC1 | 91
5 | CC(C)C[C@H](NC(=O)[C@@H](NC(=O)[C@@H](N)CNC(=O)c1nn[nH]n1)C(C)C)C(=O)NC(C)(C)Cc1ccccc1 | 70
6 | COc1cccc(CC(C)(C)NC(=O)[C@H](CC2CCCCC2)NC(=O)[C@@H](NC(=O)[C@@H](N)CNC(=O)c2[nH]c(=O)[nH]c(=O)c2F)C(C)C)c1 | 77
7 | CC(C)[C@H](NC(=O)[C@@H](N)CNC(=O)c1[nH]c(=O)[nH]c(=O)c1F)C(=O)N[C@@H](CC1CCCCC1)C(=O)NC(C)(C)Cc1ccc([N+](=O)[O-])cc1 | 89
8 | Cc1ccccc1CC(C)(C)NC(=O)[C@H](CC(C)C)NC(=O)[C@@H](NC(=O)[C@@H](N)CNC(=O)c1[nH]c(=O)[nH]c(=O)c1F)C(C)C | 91
9 | CC(C)C[C@H](NC(=O)[C@@H](NC(=O)[C@@H](N)CNC(=O)c1[nH]c(=O)[nH]c(=O)c1F)C(C)C)C(=O)N1CCCCCCCC1 | 81
10 | CC(C)[C@H](NC(=O)[C@@H](N)CNC(=O)c1cc(O)ccc1O)C(=O)N[C@@H](CC1CCCCC1)C(=O)NC(C)(C)Cc1ccc([N+](=O)[O-])cc1 | 80
11 | CC(C)[C@H](NC(=O)[C@@H](N)CNC(=O)c1[nH]c(=O)[nH]c(=O)c1F)C(=O)N[C@@H](CC1CCCCC1)C(=O)NC(C)(C)Cc1ccc(Br)cc1 | 92
12 | CC(C)C[C@H](NC(=O)[C@@H](NC(=O)[C@@H](N)CNC(=O)c1[nH]c(=O)[nH]c(=O)c1F)C(C)C)C(=O)N1CCCC1 | 88
13 | CC(C)C[C@H](NC(=O)[C@@H](NC(=O)[C@@H](N)CNC(=O)c1[nH]c(=O)[nH]c(=O)c1F)C(C)C)C(=O)NC(C)(C)Cc1ccc(I)cc1I | 91
14 | CC(C)[C@H](NC(=O)[C@@H](N)CNC(=O)c1[nH]c(=O)[nH]c(=O)c1F)C(=O)N[C@@H](CC1CCCCC1)C(=O)NC(C)(C)Cc1ccc(I)cc1I | 96
15 | CC(C)C[C@H](NC(=O)[C@@H](NC(=O)[C@@H](N)CNC(=O)c1[nH]c(=O)[nH]c(=O)c1F)C(C)C)C(=O)N1CCCCCC1 | 89
16 | Cc1ccc(CC(C)(C)NC(=O)[C@H](CC2CCCCC2)NC(=O)[C@@H](NC(=O)[C@@H](N)CNC(=O)c2[nH]c(=O)[nH]c(=O)c2F)C(C)C)cc1 | 88
17 | CC(C)C[C@H](NC(=O)[C@@H](NC(=O)[C@@H](N)CCC(=O)O)C(C)C)C(=O)NC(C)(C)Cc1ccccc1 | < 10
18 | CC(C)[C@H](NC(=O)[C@@H](N)CNC(=O)c1[nH]c(=O)[nH]c(=O)c1F)C(=O)N[C@@H](CC1CCCCC1)C(=O)NC(C)(C)Cc1ccccc1 | 92
19 | CC(C)C[C@H](NC(=O)[C@@H](NC(=O)[C@@H](N)CNC(=O)c1[nH]c(=O)[nH]c(=O)c1F)C(C)C)C(=O)NC(C)(C)Cc1ccc(Br)cc1 | 85
20 | Cc1ccc(CC(C)(C)NC(=O)[C@H](CC(C)C)NC(=O)[C@@H](NC(=O)[C@@H](N)CNC(=O)c2[nH]c(=O)[nH]c(=O)c2F)C(C)C)cc1 | 86
21 | Cc1ccccc1CC(C)(C)NC(=O)[C@H](CC1CCCCC1)NC(=O)[C@@H](NC(=O)[C@@H](N)CNC(=O)c1[nH]c(=O)[nH]c(=O)c1F)C(C)C | 84
22 | CC(C)C[C@H](NC(=O)[C@@H](NC(=O)[C@@H](N)CNC(=O)c1[nH]c(=O)[nH]c(=O)c1F)C(C)C)C(=O)NC(C)(C)Cc1ccc([N+](=O)[O-])cc1 | 27
23 | COc1ccc(CC(C)(C)NC(=O)[C@H](CC2CCCCC2)NC(=O)[C@@H](NC(=O)[C@@H](N)CNC(=O)c2[nH]c(=O)[nH]c(=O)c2F)C(C)C)cc1 | 85
24 | CC(C)C[C@H](NC(=O)[C@@H](NC(=O)[C@@H](N)CNC(=O)c1[nH]c(=O)[nH]c(=O)c1F)C(C)C)C(=O)NC(C)(C)CC1CCCCC1 | 91
25 | CC(C)[C@H](NC(=O)[C@@H](N)CNC(=O)c1[nH]c(=O)[nH]c(=O)c1F)C(=O)N[C@@H](CC1CCCCC1)C(=O)NC(C)(C)CC1CCCCC1 | 88
26 | CC(C)[C@H](NC(=O)[C@@H](N)CCC(=O)O)C(=O)N[C@@H](CC1CCCCC1)C(=O)NC(C)(C)Cc1ccccc1 | 16
27 | CC(C)[C@H](NC(=O)[C@@H](N)CNC(=O)c1[nH]c(=O)[nH]c(=O)c1F)C(=O)N[C@@H](CC1CCCCC1)C(=O)NC(C)(C)Cc1cc(F)cc(F)c1 | 91

Continued, values first:

Row | inhibition [%] | SMILES
28 | 81 | CC(C)[C@H](NC(=O)[C@@H](N)CNC(=O)c1cc(O)ccc1O)C(=O)N[C@@H](CC1CCCCC1)C(=O)NC(C)(C)Cc1ccc(Br)cc1
29 | 86 | CC(C)C[C@H](NC(=O)[C@@H](NC(=O)[C@@H](N)CNC(=O)c1[nH]c(=O)[nH]c(=O)c1F)C(C)C)C(=O)NC(C)(C)Cc1cc(F)cc(F)c1
30 | 54 | Cc1ccccc1CC(C)(C)NC(=O)[C@H](CC1CCCCC1)NC(=O)[C@@H](NC(=O)[C@@H](N)CNC(=O)c1cc(O)ccc1O)C(C)C
31 | 88 | CC(C)[C@H](NC(=O)[C@@H](N)CNC(=O)c1cc(O)ccc1O)C(=O)N[C@@H](CC1CCCCC1)C(=O)NC(C)(C)Cc1ccc(I)cc1I
32 | 78 | CC(C)C[C@H](NC(=O)[C@@H](NC(=O)[C@@H](N)CNC(=O)c1cc(O)ccc1O)C(C)C)C(=O)NC(C)(C)Cc1ccc(I)cc1I
33 | 45 | CC(C)C[C@H](NC(=O)[C@@H](NC(=O)[C@@H](N)CNC(=O)c1cc(O)ccc1O)C(C)C)C(=O)NC(C)(C)Cc1ccc([N+](=O)[O-])cc1
34 | 46 | COc1cccc(CC(C)(C)NC(=O)[C@H](CC(C)C)NC(=O)[C@@H](NC(=O)[C@@H](N)CNC(=O)c2cc(O)ccc2O)C(C)C)c1
35 | 41 | COc1ccc(CC(C)(C)NC(=O)[C@H](CC(C)C)NC(=O)[C@@H](NC(=O)[C@@H](N)CNC(=O)c2cc(O)ccc2O)C(C)C)cc1
36 | 84 | COc1cccc(CC(C)(C)NC(=O)[C@H](CC(C)C)NC(=O)[C@@H](NC(=O)[C@@H](N)CNC(=O)c2[nH]c(=O)[nH]c(=O)c2F)C(C)C)c1
37 | 49 | COc1cccc(CC(C)(C)NC(=O)[C@H](CC2CCCCC2)NC(=O)[C@@H](NC(=O)[C@@H](N)CNC(=O)c2cc(O)ccc2O)C(C)C)c1
38 | 59 | CC(C)C[C@H](NC(=O)[C@@H](NC(=O)[C@@H](N)CNC(=O)c1cc(O)ccc1O)C(C)C)C(=O)NC(C)(C)Cc1cc(F)cc(F)c1
39 | 45 | COc1ccc(CC(C)(C)NC(=O)[C@H](CC2CCCCC2)NC(=O)[C@@H](NC(=O)[C@@H](N)CNC(=O)c2cc(O)ccc2O)C(C)C)cc1
40 | 90 | CC(C)C[C@H](NC(=O)[C@@H](NC(=O)[C@@H](N)CNC(=O)c1[nH]c(=O)[nH]c(=O)c1F)C(C)C)C(=O)NC(C)(C)Cc1ccccc1
41 | 80 | CC(C)[C@H](NC(=O)[C@@H](N)CNC(=O)c1cc(O)ccc1O)C(=O)N[C@@H](CC1CCCCC1)C(=O)NC(C)(C)Cc1ccccc1
42 | 51 | Cc1ccc(CC(C)(C)NC(=O)[C@H](CC(C)C)NC(=O)[C@@H](NC(=O)[C@@H](N)CNC(=O)c2cc(O)ccc2O)C(C)C)cc1
43 | 77 | CC(C)C[C@H](NC(=O)[C@@H](NC(=O)[C@@H](N)CNC(=O)c1cc(O)ccc1O)C(C)C)C(=O)NC(C)(C)Cc1ccccc1
